Reference: patent US20040138301A1, “Chemical uncouplers for the treatment of obesity” (priority 2002, published 2004)

Test system: FSK-4 cells
Assay: Assay (IV): Glucose utilisation in FSK-4 cells
Format: cell-based
Conditions: FSK-4 cells; for EC50: glucose utilisation, 24 hours incubation, read-out: FSK4 EC50; for Emax: maximal efficacy relative to FCCP, read-out: FSK4 Emax (% of FCCP)

EC50 [nM]	Compound	Emax [%]
50000	N#CC(C#N)=Cc1c[nH]c2ccc(Cl)cc12 [Example 30, 2-((5-Chloro-1H-Indol-3-Yl)Methylene)Malononitrile]	100
400	N#CC(C#N)=Cc1c(Cl)[nH]c2ccccc12 [Example 34, 2-(2-Chloro-1H-Indol-3-Ylmethylene)-Malononitrile]	90
30	Cc1c(Br)cc(C(C)(C)C)c(O)c1C(=O)Nc1ccc([N+](=O)[O-])cc1Cl [Example 37, 3-Bromo-5-Tert-Butyl-N-(2-Chloro-4-Nitro-Phenyl)-6-Hydroxy-2-Methyl-Benzamide]	110
< 30	Cc1c(Cl)cc(C(C)(C)C)c(O)c1C(=O)Nc1ccc([N+](=O)[O-])cc1C(F)(F)F [Example 50, 3-Tert-Butyl-5-Chloro-2-Hydroxy-6-Methyl-N-(4-Nitro-2-Trifluoromethyl-Phenyl)-Benzamide]	75
8000	Cc1cc(C(C#N)c2ccc(Cl)cc2)c(Cl)cc1NC(=O)c1c(C)c(Br)cc(C(C)(C)C)c1O (stereo not drawn) [Example 56, 3-Bromo-5-Tert-Butyl-N-{5-Chloro-4-[(4-Chloro-Phenyl)-Cyano-Methyl]-2-Methyl-Phenyl}-6-Hydroxy-2-Methyl-Benzamide]	105
< 30	Cc1c(Br)cc(C(C)(C)C)c(O)c1C(=O)Nc1ccc([N+](=O)[O-])cc1C(F)(F)F [Example 58, 3-Bromo-5-Tert-Butyl-6-Hydroxy-2-Methyl-N-(4-Nitro-2-Trifluoromethyl-Phenyl)-Benzamide]	100
700	CC(=C(C#N)C#N)c1cc(C(C)(C)C)c(O)c(C(C)(C)C)c1 [Example 75, 2-[1-(3,5-Di-Tert-Butyl-4-Hydroxy-Phenyl)-Ethylidene]-Malononitrile]	75
1000	CC(C)(C)c1cc(/C=C(\C#N)c2ccc([N+](=O)[O-])cc2)cc(C(C)(C)C)c1O [Example 77, 3-(3,5-Di-Tert-Butyl-4-Hydroxy-Phenyl)-2-(4-Nitro-Phenyl)-Acrylonitrile]	110

Compound	EC50 [nM]	Emax [%]
N#CC(C#N)=NNc1ccc(OC(F)(F)F)cc1 [Example 27, Carbonylcyanide p-Trifluoromethoxy-Phenylhydrazone, reference compound]	1000	100
